The target of assay [1] is CDK-2 enzyme, complexed with cyclin A (Homo sapiens, UniProt P24941). Kind of assay: CDK2 enzyme inhibition assay (33P phosphorylation of peptide […], filter plate). It is filed as biochemical. Conditions: CDK-2/cyclin A, 0.1 mM ATP, 40 min at 30° C. The method, boiled down:
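Cyclin A–complexed CDK2 (0.4 U/ml) incubated with inhibitor, 0.03 mM peptide, 0.1 mM ATP plus 33P-γ-ATP in HEPES pH 7.5, 7.5 mM Mg acetate, 0.1 mg/ml BSA, 40 min at 30 °C. Stopped with phosphoric acid; phosphorylated peptide captured on filter plates and counted by scintillation.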

For assay [2], the target named is T1, GST-Chk1 enzyme (Homo sapiens, UniProt O14757).
T1 sequence (O14757 1-476): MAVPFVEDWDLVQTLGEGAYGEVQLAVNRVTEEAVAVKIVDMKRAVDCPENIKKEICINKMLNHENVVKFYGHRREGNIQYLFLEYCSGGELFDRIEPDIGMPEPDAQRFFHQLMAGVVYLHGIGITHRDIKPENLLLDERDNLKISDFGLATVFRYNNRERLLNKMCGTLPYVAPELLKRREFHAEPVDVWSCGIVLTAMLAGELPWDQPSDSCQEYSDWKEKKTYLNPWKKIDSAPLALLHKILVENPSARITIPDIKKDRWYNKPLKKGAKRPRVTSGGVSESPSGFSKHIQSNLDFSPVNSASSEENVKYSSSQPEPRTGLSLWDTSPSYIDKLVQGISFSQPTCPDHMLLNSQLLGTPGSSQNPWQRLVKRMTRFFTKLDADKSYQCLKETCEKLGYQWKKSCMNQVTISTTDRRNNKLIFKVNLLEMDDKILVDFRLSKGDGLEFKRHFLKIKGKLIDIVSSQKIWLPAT
Kind of assay: Chk1 kinase inhibition assay (33P phosphorylation of Chktide, filter plate). It counts as biochemical. Conditions: 0.01 mM ATP, 11 nM GST-Chk1, 40 minutes at 30° C.; read-out: Chk1 IC50. The method, boiled down:
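Inhibitor and enzyme reacted 40 min at 30 °C, then stopped with 50 mM phosphoric acid. Phosphorylated peptide captured on filter plates and quantified by scintillation counting.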

The target of assay [3] is T2, PDK1 enzyme (Homo sapiens, UniProt O15530).
T2 sequence (O15530 1-556): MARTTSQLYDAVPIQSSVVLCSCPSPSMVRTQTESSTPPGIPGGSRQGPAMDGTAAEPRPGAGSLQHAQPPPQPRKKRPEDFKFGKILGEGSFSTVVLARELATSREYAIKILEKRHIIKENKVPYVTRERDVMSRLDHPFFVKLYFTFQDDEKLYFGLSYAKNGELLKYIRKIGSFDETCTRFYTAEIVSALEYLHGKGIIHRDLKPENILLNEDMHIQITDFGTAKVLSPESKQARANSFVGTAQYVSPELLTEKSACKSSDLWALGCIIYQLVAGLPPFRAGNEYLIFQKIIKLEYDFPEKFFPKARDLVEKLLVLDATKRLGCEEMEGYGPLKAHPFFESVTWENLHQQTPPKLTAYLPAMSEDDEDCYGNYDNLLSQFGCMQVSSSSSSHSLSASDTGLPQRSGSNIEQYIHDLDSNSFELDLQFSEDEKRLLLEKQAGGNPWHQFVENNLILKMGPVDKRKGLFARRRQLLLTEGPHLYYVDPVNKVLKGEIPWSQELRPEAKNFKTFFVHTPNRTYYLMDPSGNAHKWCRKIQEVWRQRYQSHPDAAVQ
The assay is described as follows: PDK1 kinase inhibition assay (33P phosphorylation of synthetic peptide, filter plate). It counts as biochemical. Conditions: 0.01 mM ATP, 60 min at 30° C.; read-out: PDK1 IC50. Put shortly:
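PDK1 and inhibitor incubated 60 min at 30° C with 0.01 mM ATP plus 33P-γ-ATP, 0.075 mM peptide, 7.5 mM Mg acetate, 0.1 mg/ml BSA in 0.05 M Tris.HCl pH 7.5. Stopped with phosphoric acid; phosphorylated peptide captured on filter plate and counted by scintillation.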

Assay [4] is described as follows: Cell growth inhibition assay: cytotoxicity by sulforhodamine B (SRB) assay. It counts as cell-based. Particulars: 96 h; SRB assay, 4 days with drug; cell line not named; read-out: GI50. Here is the method:
B. Cell Growth Inhibition Assay:
• 1) Determine cell number by haemocytometer. • 2) Using an 8 channel multipipettor, add 160 μl of the cell suspension ([…] or 2×10^4 cells/ml) to each well of a 96-well microtitre plate. • 3) Incubate overnight at 37° C. in a CO2 incubator. Day 2 • 4) Stock solutions of drugs are prepared, and serial dilutions of each drug are performed in medium to give final concentrations in wells. • 5) Using a multipipettor, 40 μl of drug (at 5× final concentration) is added to quadruplicate wells. • 6) Control wells are at either side of the 96 well plates, where 40 μl of medium is added. • 7) Incubate plates in CO2 incubator for 4 days Day 6 • 8) Tip off medium into sink and immerse plate slowly into 10% ice cold trichloroacetic acid (TCA). Leave for about 30 mins on ice. • 9) Wash plates three times in tap water by immersing the plates into baths of tap water and tipping it off. • 10) Dry in incubator. • 11) Add 100 μl of 0.4% SRB in 1% acetic acid to each well (except the last row right hand)of the 96 well plate, this is the 0% control, ie no drug, no stain. The first row will be the 100% control with no drug, but with stain). Leave for 5 mins. • 12) Wash off unbound SRB stain with four washes of 1% acetic acid. • 13) Dry plates in incubator. • 14) Solubilise SRB using 100 μl of 10 mM Tris base and put plates on plate shaker for 5 mins. • 15) Determine absorbance at 540 nm using a plate reader. Calculate mean absorbance for quadruplicate wells and express as a percentage of value for control, untreated wells.
Plot % absorbance values versus log drug concentration and determine the IC50.
(In SRB staining, fixed cells bind dye roughly in proportion to their protein.)

IC50 and GI50 data for two compounds are collected here from US20070179161A1, “Pyrazolopyrimidine compounds and their use in medicine” (VERNALIS (CAMBRIDGE) LIMITED., priority 2003, published 2007).

One may read the IC50 as the concentration that gives 50% inhibition. A word on the GI50: it is the concentration at which growth is held to half of that of the control. Consider `N[C@H]1CC[C@H](Nc2cc(Nc3ccc(Oc4ccccc4)cc3)n3ncc(Br)c3n2)CC1` [Example 181], for which the values for the IC50 in assay [1], in assay [2] and in assay [3] were 101 nM, 1000 nM and 109000 nM, respectively. The GI50 in assay [4] turned out to be 90 nM.

For the compound `N[C@H]1CC[C@H](Nc2cc(Nc3cccc(Cl)c3)n3ncc(Cl)c3n2)CC1` [Example 192], the IC50 in assay [1] came out at 9 nM; in assay [2] it was 2140 nM; in assay [3] it was 3240 nM. Also, in assay [4], the GI50 is 200 nM.
